Source: PubChem BioAssay (NCI)
Where “and” joins values, the source holds several entries; their conditions need not be identical. Identical values can stand only once.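 Five compound concentrations were applied to cells in 96-well plates for 48 hours; endpoints were derived by simple linear interpolation of the resulting dose-response curve. Abbreviation: GI50, concentration required for 50% inhibition of growth. TGI is the concentration that stops growth completely.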

Experiments:
Test in all cases: inhibition of tumour cell growth, NCI panel, 48 h
RXF 393 renal = system: RXF 393 renal
SK-MEL-2 melanoma = system: SK-MEL-2 melanoma
SF-295 CNS = system: SF-295 CNS
ACHN renal = system: ACHN renal
OVCAR-5 ovarian = system: OVCAR-5 ovarian
LOX IMVI melanoma = system: LOX IMVI melanoma
SF-268 CNS = system: SF-268 CNS
COLO 205 colon = system: COLO 205 colon
UO-31 renal = system: UO-31 renal
UACC-257 melanoma = system: UACC-257 melanoma

| Structure (SMILES) | TGI (RXF 393 renal) [µM] | TGI (SK-MEL-2 melanoma) [µM] | TGI (SF-295 CNS) | TGI (ACHN renal) | TGI (OVCAR-5 ovarian) [µM] | TGI (LOX IMVI melanoma) | TGI (SF-268 CNS) | GI50 (RXF 393 renal) [µM] | GI50 (SK-MEL-2 melanoma) [µM] | GI50 (SF-295 CNS) | GI50 (ACHN renal) | GI50 (OVCAR-5 ovarian) | GI50 (LOX IMVI melanoma) | GI50 (COLO 205 colon) | TGI (COLO 205 colon) [µM] | GI50 (SF-268 CNS) | GI50 (UO-31 renal) [µM] | TGI (UO-31 renal) [µM] | GI50 (UACC-257 melanoma) [µM] | TGI (UACC-257 melanoma) [µM] |
| --- | --- | --- | --- | --- | --- | --- | --- | --- | --- | --- | --- | --- | --- | --- | --- | --- | --- | --- | --- | --- |
| Cc1cccc(C2SCc3nc4ccccc4n32)c1 (stereo not given) | 43.9 | 52.6 | > 100 µM | > 100 µM | 65.8 | > 100 µM | > 100 µM | – | – | – | – | – | – | – | – | – | – | – | – | – |
| COc1ccc2c(c1)nc(C(=O)c1ccco1)c(C(F)(F)F)[n+]2[O-] | > 100 | > 100 | > 100 µM | > 100 µM | > 100 | > 100 µM | > 100 µM | 47.5 | > 100 | > 100 µM | > 100 µM | > 100 µM | > 100 µM | > 100 µM | > 100 | 83.8 µM | > 100 | > 100 | – | – |
| O=C(Nc1ccccc1)Nc1ccc2cc3ccc(NC(=O)Nc4ccccc4)cc3nc2c1 | 3.61 | 3.24 | 3.72 µM | > 100 µM | > 100 | 1.67 µM | 3.54 µM | 1.49 | 1.72 | 1.82 µM | 3.57 µM | 3.1 µM | 0.467 µM | 0.573 µM | 1.88 | 1.68 µM | > 100 | > 100 | – | – |
| CCCCCCCCCCCCCCCCCCn1cc[n+](C)c1 | 1.54 | – | – | 2.04 µM and 2.03 µM | 2 | 0.479 µM and 1.75 µM | – | 0.451 | – | – | 0.54 µM and 0.69 µM | 0.605 µM | 0.189 µM and 0.406 µM | 0.35 µM | 1.28 | – | 1.03 | 2.41 | 1.53 | 3.91 |
| CCc1cccc(C)c1NC(=O)C(=O)CC(=O)c1ccc(Cl)s1 | – | > 100 | > 100 µM | > 100 µM | – | > 100 µM | > 100 µM | – | – | – | – | – | – | – | – | – | – | > 100 | – | > 100 |
| CCc1ccc(CCC(=O)Nc2ncc(Cc3ccc(Cl)cc3)s2)o1 | 0.675 | > 100 | > 100 µM | > 100 µM | > 100 | > 100 µM | > 100 µM | 0.226 | 0.684 | 0.374 µM | 0.66 µM | 0.615 µM | 1.02 µM | – | – | 1.68 µM | 0.65 | > 100 | – | > 100 |
| COc1ccc2c(c1OC)CO[C@@H]2[C@H]1c2c(cc3c(c2OC)OCO3)CCN1S(=O)(=O)c1cn(C)cn1 | – | > 100 | > 100 µM | > 100 µM | > 100 | > 100 µM | > 100 µM | – | 2.17 | 1.18 µM | 1.73 µM | 4.22 µM | 4.48 µM | 1.72 µM | 11.6 | 5.64 µM | 5.2 | > 100 | 9.43 | > 100 |
| O=C1C=CC=C/C1=C1/SC(c2ccccc2)=C(O)N1c1ccccc1 | > 100 | > 100 | > 100 µM | > 100 µM | > 100 | – | > 100 µM | – | – | – | – | – | – | – | > 100 | – | – | > 100 | – | > 100 |
| COC(=O)[C@H](Cc1cnc[nH]1)NC(=O)[C@@H](NC(=O)Nc1cc(C(F)(F)F)cc(C(F)(F)F)c1)C(C)C | 27.5 | – | 31.8 µM | 33.4 µM | 31.1 | – | 31.1 µM | 13.6 | – | 16.1 µM | 17.2 µM | 16.5 µM | – | 15.2 µM | 29.4 | 15.2 µM | 15 | 29.5 | 15.7 | 29.9 |
| C=C/C=C/[C@@H](O)CC(=C)C[C@H]1OC2[C@H](C)[C@@H](OC(=O)C[C@H]3C[C@H](OC(C)=O)C[C@@]4(C[C@@](C)(O)C[C@H](CC(=C)[C@@H](C)[C@H](OC(C)=O)[C@H](C)C(=O)C[C@@H]5C[C@H](OC)CC6(C[C@@H](O)C[C@H](/C=C\CCC[C@H]7O[C@](O)(C=C[C@H]7C)[C@H]2O)O6)O5)O4)O3)[C@@H]1O | 0.0542 | 0.00308 | 0.0029 µM and < 0.0025 µM | > 25 µM | > 25 | – | 0.0413 µM and 0.277 µM | 0.0025 | 0.0025 | 0.000492 µM and < 0.0025 µM | 0.00472 µM and 0.00856 µM | 0.00293 µM and 0.0025 µM | – | 0.000359 µM and < 0.0025 µM | < 0.0025 | 0.00406 µM and 0.0025 µM | – | > 10.9 | 0.00248 | > 25 |
| CN(C)C(=N/O)/C(=N\O)N(C)C | > 100 | > 100 | > 100 µM | > 100 µM | > 100 | > 100 µM | > 100 µM | – | – | – | – | – | – | – | – | – | – | > 100 | – | > 100 |
| CN(c1ccc(C(=O)c2ccc(N(C)S(C)(=O)=O)cc2)cc1)S(C)(=O)=O | – | > 100 | > 100 µM | > 100 µM | > 100 | – | > 100 µM | – | – | – | – | – | – | – | > 100 | – | – | > 100 | – | > 100 |
| NCCCC[C@@H]1NC(=O)[C@H](CC(=O)O)NC(=O)CNC(=O)[C@H](CCCN=C(N)N)NC(=O)[C@@H](N)CSSC[C@@H](C(=O)O)NC(=O)[C@H](CC(=O)O)NC(=O)[C@@H]2CCCN2C(=O)CNC1=O | > 100 | – | > 100 µM | > 100 µM | > 100 | > 100 µM | > 100 µM | > 100 | – | > 100 µM | > 100 µM | > 100 µM | > 100 µM | > 100 µM | > 100 | > 100 µM | – | – | > 100 | > 100 |
| O=C(CCCN1CCC(O)(c2ccc(Cl)cc2)CC1)c1ccc(F)cc1 | – | 39.5 | 31.5 µM | > 100 µM | > 100 | 33.1 µM | > 100 µM | – | – | – | – | – | – | – | 43.2 | – | – | 45.8 | – | 46.7 |
| Cc1ccc(S(=O)(=O)SC(C)(C)C)cc1 | – | > 88.3 | > 100 µM | 98.1 µM | > 76 | 60.1 µM | > 100 µM | – | – | – | – | – | – | – | > 92.5 | – | – | > 100 | – | 50.3 |
| O=C1N2Cc3c4ccc5c3CN3C(=O)N6Cc7c(ccc(c7CN1C6(c1ccccc1)C23c1ccccc1)OCCOCCNCCOCCO4)OCCOCCNCCOCCO5 (stereo not given) | > 100 | > 100 | > 100 µM | 47.9 µM | > 100 | – | > 100 µM | – | – | – | – | – | – | – | – | – | – | > 100 | – | 69 |
